Our source for the viability values is article PMC12040169 (PLOS Biology, 2025).

Usually viability stands for a read-out of living cells in per cent, often relative to untreated cells.

One series in a line: in vitro. The note with it: human, hela cells, % viability.
Take `O=C(NC(c1ccccc1)c1ccsc1)C1CCN(S(=O)(=O)c2cccc(Cl)c2)CC1` (stereo not shown) [CBK060188]: the viability at 28.5 h, 10 µM came out at 97.7%.

As for `COc1ccc(S(=O)(=O)N2CCC(C(=O)N(C)C(c3cnccn3)c3ccccc3C)CC2)cc1` (stereo not shown) [CBK060210], the viability at 28.5 h, 10 µM came out at 99.3%.

`CN(C(=O)C1CCN(S(=O)(=O)c2cn(C)cn2)CC1)C(c1ccc(F)cc1)c1ccccn1` (stereo not shown) [CBK060229]: the viability at 28.5 h, 10 µM came to 83.8%.

For the compound `Cc1ccccc1C(c1cnccn1)N(C)C(=O)C1CCN(S(=O)(=O)C(C)C)CC1` (stereo not shown) [CBK060242], the viability at 28.5 h, 10 µM worked out at 101%.

Turning to `C=CCOC(=O)N1CCC(C(=O)N(C)C(c2cccc(OC)c2)c2ccccn2)CC1` (stereo not shown) [CBK060244], the viability at 28.5 h, 10 µM came out at 91.5%.

In the case of `Cc1ccccc1C(c1cnccn1)N(C)C(=O)C1CCN(S(=O)(=O)c2cn(C)cn2)CC1` (stereo not shown) [CBK060264], the viability at 28.5 h, 10 µM stood at 93.1%.

Regarding `Cc1ccccc1C(NC(=O)C1CCN(C(=O)NCCc2ccccc2)CC1)c1ncccc1C` (stereo not shown) [CBK060409], the viability at 28.5 h, 10 µM amounted to 91%.

Regarding `COc1ccc(C(c2ccccc2C)N(C)C(=O)C2CCN(C(C)=O)CC2)cn1` (stereo not shown) [CBK060490], the viability at 28.5 h, 10 µM was found to be 90.8%.

As for `O=C(NC(c1ccccc1)c1cccnc1)C1CCN(C(=O)CN2C(=O)c3ccccc3C2=O)CC1` (stereo not shown) [CBK060515], the viability at 28.5 h, 10 µM worked out at 108%.

For `COc1ccccc1C(=O)N1CCC(C(=O)N(C)C(c2ccccc2)c2ncccc2C)CC1` (stereo not shown) [CBK060531], the viability at 28.5 h, 10 µM amounted to 75.4%.

On to `CN1CCC2(CC1)OCc1cc(-c3cccnc3)ccc1O2` [CBK061020], for which the viability at 28.5 h, 10 µM turned out to be 94.6%.

As for `COc1ccccc1-c1ccc2c(c1)COC1(CCN(C)CC1)O2` [CBK061024], the viability at 28.5 h, 10 µM was 82.2%.

Consider `c1coc(-c2ccc3c(c2)COC2(CCN(CCc4ccc5c(c4)OCO5)CC2)O3)c1` [CBK061057], for which the viability at 28.5 h, 10 µM amounted to 90.4%.

On to `CSc1cc(C)c2c(c1)COC1(CCN(CC3CC3)CC1)O2` [CBK061383], for which the viability at 28.5 h, 10 µM came to 94.1%.

Consider `Cc1cc(C)c2c(c1)COC1(CCN(Cc3ccccc3)CC1)O2` [CBK061572], for which the viability at 28.5 h, 10 µM was determined as 102%.

Take `O=C(COc1ccccc1)Nc1nn(Cc2ccc(S(=O)(=O)N3CCCC3)cc2)c2ccccc12` [CBK061594]: the viability at 28.5 h, 10 µM stood at 58.6%.

For the compound `CC(Oc1ccccc1)C(=O)Nc1nn(Cc2ccc(S(=O)(=O)N3CCCC3)cc2)c2ccccc12` (stereo not shown) [CBK061595], the viability at 28.5 h, 10 µM was determined as 102%.

In the case of `CCN(Cc1ccncc1)C(CC1CCCCC1)c1ccccc1` (stereo not shown) [CBK061639T], the viability at 28.5 h, 10 µM turned out to be 97.3%.

As to `COc1cccc(-c2ccc3ccc(N)nc3n2)c1` [CBK061640], the viability at 28.5 h, 10 µM stood at 99%.

On to `CCN(Cc1cccnc1)C(CC1CCCCC1)c1ccccc1` (stereo not shown) [CBK061673], for which the viability at 28.5 h, 10 µM is 98%.

The same series, now with this note: human, hela cells, % viability, bulk resorufin, single well.
Consider `O=C(Nc1ccccc1F)N1CCC2(CC1)OCc1cc(-c3ccco3)ccc1O2` [CBK060597], for which the viability at 28.5 h, 10 µM is 92%.

Turning to `COc1cccc2c1OC1(CCN(C(=O)Nc3ccc(F)cc3F)CC1)OC2` [CBK060689], the viability at 28.5 h, 10 µM stood at 100%.

Consider `CSc1cc(C)c2c(c1)COC1(CCN(C(=O)Nc3c(C)noc3C)CC1)O2` [CBK060699], for which the viability at 28.5 h, 10 µM came out at 95.3%.

Consider `O=C(N[C@@H]1C[C@H]1c1ccccc1)N1CCC2(CC1)OCc1cc(F)ccc1O2` [CBK060724], for which the viability at 28.5 h, 10 µM came to 82.1%.

For `CC(C)(C)NC(=O)N1CCC2(CC1)OCc1cc(Br)ccc1O2` [CBK060739], the viability at 28.5 h, 10 µM amounted to 106%.

For the compound `CSc1cc(C)c2c(c1)COC1(CCN(C(=O)NC3CCCCC3)CC1)O2` [CBK060745], the viability at 28.5 h, 10 µM stood at 97.4%.

Turning to `CSc1cc(C)c2c(c1)COC1(CCN(C(=O)N[C@@H](C)c3ccccc3)CC1)O2` [CBK060747], the viability at 28.5 h, 10 µM stood at 94.5%.

On to `COc1ccc2c(c1)COC1(CCN(C(=O)Nc3ccc(N(C)C)cc3)CC1)O2` [CBK060753], for which the viability at 28.5 h, 10 µM amounted to 98.8%.

As for `COc1ccc2c(c1)COC1(CCN(C(=O)N[C@@H](C)c3ccccc3)CC1)O2` [CBK060757], the viability at 28.5 h, 10 µM stood at 106%.

Consider `COc1ccc2c(c1)COC1(CCN(C(=O)NC(=O)c3ccccc3)CC1)O2` [CBK060804], for which the viability at 28.5 h, 10 µM stood at 95.7%.

Consider `O=C(O)c1ccccc1C(=O)N1CCC2(CC1)OCc1cc(-c3ccco3)ccc1O2` [CBK060824], for which the viability at 28.5 h, 10 µM was found to be 93.6%.

In the case of `O=C(O)C1CC1C(=O)N1CCC2(CC1)OCc1cc(-c3ccco3)ccc1O2` (stereo not shown) [CBK060825], the viability at 28.5 h, 10 µM was found to be 103%.

`COc1ccc2c(c1)COC1(CCN(C(=O)C3CCC3C(=O)O)CC1)O2` (stereo not shown) [CBK060857]: the viability at 28.5 h, 10 µM stood at 97.1%.

On to `O=C(O)CC1(CC(=O)N2CCC3(CC2)OCc2cc(F)ccc2O3)CCCC1` [CBK060858], for which the viability at 28.5 h, 10 µM was found to be 94.7%.

On to `c1cc(-c2ccc3c(c2)COC2(CCNCC2)O3)ccn1` [CBK060867], for which the viability at 28.5 h, 10 µM worked out at 99%.

Turning to `c1csc(-c2ccc3c(c2)COC2(CCNCC2)O3)c1` [CBK060871], the viability at 28.5 h, 10 µM was determined as 90.3%.

With `CC(=O)N1CCC2(CC1)OCc1cc(-c3c(C)noc3C)ccc1O2` [CBK060896], the viability at 28.5 h, 10 µM came to 94.4%.

As for `CCOC(=O)N1CCC2(CC1)OCc1cc(-c3ccccc3CO)ccc1O2` [CBK060908], the viability at 28.5 h, 10 µM was 103%.

As for `COc1ccc(-c2ccc3c(c2)COC2(CCNCC2)O3)cn1` [CBK060913], the viability at 28.5 h, 10 µM turned out to be 81%.

`Fc1ccc(-c2ccc3c(c2)COC2(CCNCC2)O3)c(F)c1` [CBK060917]: the viability at 28.5 h, 10 µM stood at 96%.

On to `c1ccc2cc(-c3ccc4c(c3)COC3(CCNCC3)O4)ccc2c1` [CBK060949], for which the viability at 28.5 h, 10 µM came to 88%.

As for `CC(=O)Nc1cccc(-c2ccc3c(c2)COC2(CCNCC2)O3)c1` [CBK060956], the viability at 28.5 h, 10 µM is 94.5%.

On to `O=[N+]([O-])c1cccc(-c2ccc3c(c2)COC2(CCNCC2)O3)c1` [CBK060957], for which the viability at 28.5 h, 10 µM turned out to be 105%.

Turning to `Fc1ccc(-c2ccc3c(c2)COC2(CCNCC2)O3)cc1Cl` [CBK060960], the viability at 28.5 h, 10 µM worked out at 89.8%.

Take `CC(=O)N1CCC2(CC1)OCc1cc(-c3ccc(CCC(=O)O)cc3)ccc1O2` [CBK060971]: the viability at 28.5 h, 10 µM was found to be 90.3%.

Turning to `CC(=O)N1CCC2(CC1)OCc1cc(-c3ccccc3C(=O)O)ccc1O2` [CBK060975], the viability at 28.5 h, 10 µM is 92.1%.

Regarding `CCOC(=O)N1CCC2(CC1)OCc1cc(-c3cccc(F)c3)ccc1O2` [CBK060987], the viability at 28.5 h, 10 µM was found to be 104%.

For `CC(=O)N1CCC2(CC1)OCc1cc(-c3cncc4ccccc34)ccc1O2` [CBK061010], the viability at 28.5 h, 10 µM was found to be 90.4%.

Consider `O=C(c1ccco1)N1CCC2(CC1)OCc1cc(Cl)ccc1O2` [CBK061068], for which the viability at 28.5 h, 10 µM turned out to be 94.4%.

Consider `COc1cccc2c1OC1(CCN(C(=O)c3cccnc3)CC1)OC2` [CBK061070], for which the viability at 28.5 h, 10 µM was 95.7%.

`COc1cccc2c1OC1(CCN(C(=O)c3ccno3)CC1)OC2` [CBK061071]: the viability at 28.5 h, 10 µM was 97%.

`O=C(Cc1cccs1)N1CCC2(CC1)OCc1ccccc1O2` [CBK061086]: the viability at 28.5 h, 10 µM was 86.8%.

Regarding `COc1ccc(-c2ccc3c(c2)COC2(CCNCC2)O3)c(OC)c1` [CBK061344], the viability at 28.5 h, 10 µM came out at 91.1%.

With `Cc1cc(C)c2c(c1)COC1(CCNCC1)O2` [CBK061574], the viability at 28.5 h, 10 µM was 100%.

Regarding `c1ccc(-c2cccc3c2OC2(CCNCC2)OC3)cc1` [CBK061589], the viability at 28.5 h, 10 µM was determined as 105%.
